pIC50: −log10 of the molar value.
Legend:
[1] = molecular target: T1, PRMT1 (Homo sapiens, UniProt Q99873); assay: SAHH-coupled fluorescence assay, inhibition of PRMT1; format: biochemical
T1 construct: made in house
Method in brief: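 PRMT1 (0.1 μM) was run with 10 μM AdoMet, 5 μM SAHH and 10 μM ThioGlo4 in 2.5 mM HEPES pH 7.0, 25 mM NaCl, 25 μM EDTA, 50 μM TCEP and 0.01% Triton X-100. Fluorescence (ex 400/em 465 nm) was monitored for 15 min. Assays were done in duplicate.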

[2] = molecular target: PRMT5 (Homo sapiens, UniProt O14744); assay: selectivity of YD1113 on PRMT panel, PRMT5; format: biochemical; settings: read-out: IC50 value PRMT5
Protocol: The selectivity of compounds YD1113 and YD1290 on PRMTs were performed by Reaction Biology Corp.
Next, the selectivity of YD1113 was investigated on a panel of PRMTs at 10 μM.

T1 sequence (Q99873 whole entry, species assumed): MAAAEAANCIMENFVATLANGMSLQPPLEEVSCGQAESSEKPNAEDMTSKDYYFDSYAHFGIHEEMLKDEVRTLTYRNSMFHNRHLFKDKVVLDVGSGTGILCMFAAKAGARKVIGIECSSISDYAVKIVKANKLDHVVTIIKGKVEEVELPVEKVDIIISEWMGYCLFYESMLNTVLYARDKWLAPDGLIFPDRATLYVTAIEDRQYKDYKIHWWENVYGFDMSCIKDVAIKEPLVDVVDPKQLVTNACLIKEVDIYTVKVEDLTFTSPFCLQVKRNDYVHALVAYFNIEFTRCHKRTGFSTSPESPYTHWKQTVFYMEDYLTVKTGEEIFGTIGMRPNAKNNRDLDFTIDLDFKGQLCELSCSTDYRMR
PRMT5, sequence (O14744 whole entry, species assumed): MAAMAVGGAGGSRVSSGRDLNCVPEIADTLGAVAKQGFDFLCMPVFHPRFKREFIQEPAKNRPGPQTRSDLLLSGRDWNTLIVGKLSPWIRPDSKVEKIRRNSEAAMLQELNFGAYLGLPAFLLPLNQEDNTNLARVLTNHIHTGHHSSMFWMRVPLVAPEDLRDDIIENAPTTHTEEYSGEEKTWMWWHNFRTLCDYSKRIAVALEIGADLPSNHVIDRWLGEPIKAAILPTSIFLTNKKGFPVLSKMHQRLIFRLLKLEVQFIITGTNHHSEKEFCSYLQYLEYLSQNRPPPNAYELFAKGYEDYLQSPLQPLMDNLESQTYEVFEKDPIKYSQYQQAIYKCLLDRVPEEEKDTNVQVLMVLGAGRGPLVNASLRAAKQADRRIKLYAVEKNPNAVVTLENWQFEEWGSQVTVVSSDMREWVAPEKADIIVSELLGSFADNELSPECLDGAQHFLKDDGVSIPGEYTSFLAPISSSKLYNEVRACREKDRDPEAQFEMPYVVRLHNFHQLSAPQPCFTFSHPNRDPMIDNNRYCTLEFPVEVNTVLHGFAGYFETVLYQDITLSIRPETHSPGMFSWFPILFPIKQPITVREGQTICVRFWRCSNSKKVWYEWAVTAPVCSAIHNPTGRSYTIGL
PRMT5, sequence (Q9BQA1 whole entry partner, species assumed): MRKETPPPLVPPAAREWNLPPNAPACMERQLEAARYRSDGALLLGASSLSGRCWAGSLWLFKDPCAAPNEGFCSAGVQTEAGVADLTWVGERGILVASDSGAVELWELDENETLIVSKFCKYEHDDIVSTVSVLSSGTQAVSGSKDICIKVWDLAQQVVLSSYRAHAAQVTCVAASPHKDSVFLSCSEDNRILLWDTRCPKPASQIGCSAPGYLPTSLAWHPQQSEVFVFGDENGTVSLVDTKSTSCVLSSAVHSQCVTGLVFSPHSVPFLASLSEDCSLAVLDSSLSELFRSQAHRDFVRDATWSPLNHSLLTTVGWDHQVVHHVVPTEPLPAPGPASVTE

inhibition at 10 µM [1]: 30%
pIC50 [2]: 6.45
SMILES: Nc1ncnc2c1ncn2[C@@H]1O[C@H](CSCCNC(=O)NCc2ccccc2)[C@@H](O)[C@H]1O [Compound 7a, 1-(2-((((2S,3S,4R,5R)-5-(6-amino-9H-purin-9-yl)-3,4-dihydroxytetrahydrofuran-2-yl)methyl)thio)ethyl)-3-benzylurea]

Source: patent US20260306527A1, “PRMT INHIBITOR COMPOUNDS AND THE USES THEREOF” (Purdue Research Foundation, priority 2023, published 2026)
